Test results published in publication PMC10778758, “Dithioethanol (DTE)-Conjugated Deoxyribose Cyclic Dinucleotide Prodrugs (DTE-dCDNs) as STING Agonist” (International Journal of Molecular Sciences, 2023).
Where “and” joins values, the source holds several entries; their conditions need not be identical. Equal entries are not always repeated.

Experiments:
[1] = system: THP-1 cells; experiment: RT-qPCR of cytokine mRNA levels in THP-1 cells; type: cell-based; conditions: 4 h
Procedure: Real-time quantitative PCR (RT-qPCR). The mRNA expression levels of diverse cytokines were measured using quantitative RT-PCR (RT-qPCR) assays. THP-1 cells or CT26 cells were incubated with the compounds for 4 h, subsequently harvested for RNA isolation according to the manufacturer’s instructions of RNApure Tissue&Cell Kit (DNase I) (CWBIO, Cambridge, MA, USA catalogue no. CW0560S). Next, 1 μg RNA was reversely transcribed to cDNA by TransScript All-in-One First-Strand cDNA Synthesis SuperMix for qPCR (One-Step gDNA Removal) (TransGen, Beijing, China). To examine the mRNA levels, real-time PCR was performed in a CFX96 Real-Time PCR system (Bio-RAD, Hercules, CA, USA) using PerfectStart Green qPCR Super Mix (TransGen) and primers (Sangon Biotech, Shanghai, China). The expression level was calculated according to the formula (2^−∆∆Ct) using the GAPDH or β-actin as the internal reference gene and the relative gene expression fold was normalized to the DMSO-treated cells. The THP-1 and CT26 cell lines were obtained from American Type Culture Collection (ATCC, Manassas, VA, USA).
Figure 7 Prodrug 9 improved the production of the type I interferons and proinflammatory cytokines in THP-1 cells. The mRNA expression levels of IFN-β (a), CXCL10 (b), IL-6 (c), and TNF-α (d) were assessed via real-time quantitative PCR (qPCR) under the treatment of prodrug 9 (10 μM), 3′,3′-c-di-dAMP (100 μM), 2′,3′-cGAMP (100 μM), and ADU-S100 (10 μM) for 4 h.

[2] = system: THP-1 cells; experiment: Western blot of STING/TBK1/IRF3 phosphorylation in THP-1 cells; type: cell-based; conditions: 4 h
Procedure: Western blotting. THP-1 cells (8 × 10^5 cells/well) were seeded into a 6-well plate and treated with prodrug 9, 2′,3′-cGAMP, 3′,3′-c-di-dAMP, and ADU-S100 for 4 h. The total proteins from the cells were extracted via cold RIPA buffer supplemented with protease inhibitors. Cell lysates were harvested via 1 × SDS-PAGE sample loading buffer (Cat. code: P0015, Beyotime, Shanghai, China), boiled at 100 °C for 10 min. Cell lysates were run on 10% SDS-PAGE gels and transferred onto NC membranes. The membranes were blocked with 5% BSA for 1 h and incubated with primary antibodies against STING, phospho-STING (Ser366), TBK1, phospho-TBK1 (Ser172), IRF3, phospho-IRF3 (Ser386), or β-actin overnight at 4 °C. Horseradish peroxidase-conjugated secondary antibodies were used as secondary antibodies. Finally, the membrane was detected using enhanced chemiluminescence for imaging.
Figure 9 Prodrug 9 activated the STING signalling pathway through stimulating the phosphorylation of STING, TBK1, and IRF3. Prodrug 9 (10 μM), 2′,3′-cGAMP (100 μM), 3′,3′-c-di-dAMP (100 μM), and ADU-S100 (10 μM) were used to treat THP-1 cells for 4 h, and the levels of total STING, phospho-STING, total TBK1, phospho-TBK1, total IRF3, phospho-IRF3, and β-actin were detected via Western blotting. The raw images of western blots were also placed in pages S16–S22 in Supplementary Materials.
Figure S4. Relative quantification of phospho-STING, phospho-TBK1, phospho-IRF3. Prodrug 9 (10
μM), 2′,3′-cGAMP (100 μM), 3′,3′-c-di-dAMP (100 μM) and ADU-S100 (10 μM) were used to treat
THP-1 cells for 4 h, and the levels of total STING, phospho-STING, total TBK1, phospho-TBK1, total
IRF3, phospho-IRF3, and β-actin were assessed by western blotting. […]

[3] = system: THP1-Lucia cells; experiment: THP1-Lucia cell-based luciferase reporter assay
Procedure: THP1-Lucia cell-based reporter assay. THP1-Lucia cells were seeded into a 24-well plate at a density of 5 × 10^4 cells/well. […] Finally, the medium was collected to determine the luciferase activity using QUANTI-Luc (InvivoGen, San Diego, CA, USA) according to the manufacturer′s instruction to calculate the EC50 values of the tested compounds. The results are expressed as the mean ± SD from three independent experiments. Emax values were normalized to the response induced by 2′,3′-cGAMP in each assay and expressed as a mean percentage ± SD from three independent experiments. The THP1-Lucia cell line was obtained from Prof. Junmin Quan from Peking University (Beijing, China).
Figure 5 The luciferase-based assay in the THP1-Lucia reporter cell line. (a) EC50 values represent the mean (±SD) of three independent experiments. (b) Emax values represent the mean (±SD) of three independent experiments.

[4] = THP-1, prodrug 9 10 μM vs 2′,3′-cGAMP 100 μM
[5] = THP-1, prodrug 9 10 μM vs 3′,3′-c-di-dAMP 100 μM
[6] = THP-1, prodrug 9 10 μM vs ADU-S100 10 μM

SMILES: Nc1ncnc2c1ncn2C1CC2OP(=O)(OCCSSc3ccccn3)OCC3OC(n4cnc5c(N)ncnc54)CC3OP(=O)(OCCSSc3ccccn3)OCC2O1 (stereo not drawn) [prodrug 9]
- CXCL10 mRNA expression, fold compared to 2′,3′-cGAMP [1, 4]: ~17 fold
- IFN-β mRNA expression, fold compared to 2′,3′-cGAMP [1, 4]: approximately 40 fold
- IL-6 mRNA expression, fold compared to 2′,3′-cGAMP [1, 4]: ~1.2 fold
- TNF-α mRNA expression, fold compared to 2′,3′-cGAMP [1, 4]: ~46 fold
- CXCL10 mRNA expression, fold compared to 3′,3′-c-di-dAMP [1, 5]: ~26 fold
- IFN-β mRNA expression, fold compared to 3′,3′-c-di-dAMP [1, 5]: approximately 43 fold
- IL-6 mRNA expression, fold compared to 3′,3′-c-di-dAMP [1, 5]: ~1.4 fold
- TNF-α mRNA expression, fold compared to 3′,3′-c-di-dAMP [1, 5]: ~12 fold
- CXCL10 mRNA expression, fold higher than ADU-S100 [1, 6]: 14 fold
- IFN-β mRNA expression, fold higher than ADU-S100 [1, 6]: 14 fold
- IL-6 mRNA expression, fold higher than ADU-S100 [1, 6]: 1.9 fold
- TNF-α mRNA expression, fold higher than ADU-S100 [1, 6]: 15 fold
- relative expression of phospho-IRF3, fold compared to 2′,3′-cGAMP [2, 4]: 19.8 fold
- relative expression of phospho-STING, fold compared to 2′,3′-cGAMP [2, 4]: 20.8 fold
- relative expression of phospho-TBK1, fold compared to 2′,3′-cGAMP [2, 4]: 6.9 fold
- relative expression of phospho-IRF3, fold compared to 3′,3′-c-di-dAMP [2, 5]: 6.5 fold
- relative expression of phospho-STING, fold compared to 3′,3′-c-di-dAMP [2, 5]: 5.5 fold
- relative expression of phospho-TBK1, fold compared to 3′,3′-c-di-dAMP [2, 5]: 3.6 fold
- relative expression of phospho-IRF3, fold compared to ADU-S100 [2, 6]: 1.8 fold
- relative expression of phospho-STING, fold compared to ADU-S100 [2, 6]: 1.6 fold
- relative expression of phospho-TBK1, fold compared to ADU-S100 [2, 6]: 1.3 fold
- fold activity (EC50) vs 3′,3′-c-di-dAMP [3]: ~43 fold
- fold activity (EC50) vs ADU-S100 [3]: ~3.0 fold and 3 fold
- maximum activation fold (Emax) relative to 2′,3′-cGAMP [3]: approximately 1.8 fold
- maximum activation fold (Emax) relative to 3′,3′-c-di-dAMP [3]: ~1.9 fold
- maximum activation fold (Emax) relative to ADU-S100 [3]: ~1.4 fold
- EC50 ([3]; 24 h): 0.96 µM
